The values that follow come from patent US20020128464A1, “Method of finding modulators of enzymes of the carotenoid biosynthetic pathway” (priority 2000, published 2002).

The subject of one assay is PDS. To be noted: in vitro (Trebst, 1997); cited from earlier work.
Another assay relates to tobacco plants. The assay can be described thus: Carotenoid content (phytoene accumulation) of treated tobacco plants, HPLC. To be noted: tobacco plants treated with norflurazon; comparator for PDS antisense lines. The assay is classed as in vivo, Nicotiana tabacum.
A further assay concerns the target Erwinia uredovora PSY (Pantoea ananas, UniProt P21683). To be noted: overexpressed Erwinia uredovora PSY (Neudert, 1998); read-out: pI valve (inhibition of phytoene synthase); cited from earlier work.

Sequence of Erwinia uredovora PSY (P21683 whole entry): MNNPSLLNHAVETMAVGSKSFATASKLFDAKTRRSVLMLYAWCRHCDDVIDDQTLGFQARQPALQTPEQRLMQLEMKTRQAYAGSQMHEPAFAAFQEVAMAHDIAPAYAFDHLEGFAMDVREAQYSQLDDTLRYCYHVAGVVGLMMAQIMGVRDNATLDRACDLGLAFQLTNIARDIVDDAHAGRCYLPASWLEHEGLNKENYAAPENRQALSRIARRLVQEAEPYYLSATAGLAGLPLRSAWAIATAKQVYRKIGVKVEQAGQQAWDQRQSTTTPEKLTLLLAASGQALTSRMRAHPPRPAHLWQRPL

Take `CNc1cnn(-c2cccc(C(F)(F)F)c2)c(=O)c1Cl` [norflurazon]: the “photosystem II activity following inhibition of PDS” value in the assay with PDS was “loss of photosystem II activity”. For the same compound, the accumulation of phytoene entry in the assay on tobacco plants is listed as “very high accumulation of phytoene”.
Consider `C=C(CC[C@]12O[C@H](C(=O)O)[C@@](O)(C(=O)O)[C@](C(=O)O)(O1)[C@H](OC(=O)/C=C/[C@@H](C)C[C@@H](C)CC)[C@H]2O)[C@@H](OC(C)=O)[C@H](C)Cc1ccccc1` [squalestatin], for which, on Erwinia uredovora PSY, the IC50 is 15 µM.
On to fluridone, for which the “photosystem II activity following inhibition of PDS” value with PDS is “loss of photosystem II activity”.
